Experimental findings from publication PMC4891657, “Orexin 2 Receptor Antagonism is Sufficient to Promote NREM and REM Sleep from Mouse to Man” (Scientific Reports, 2016) are described below.

Test [1] has as its target T1, OX1R (Canis lupus familiaris, UniProt A0A8I3RSX8).
T1 sequence (A0A8I3RSX8 1-427): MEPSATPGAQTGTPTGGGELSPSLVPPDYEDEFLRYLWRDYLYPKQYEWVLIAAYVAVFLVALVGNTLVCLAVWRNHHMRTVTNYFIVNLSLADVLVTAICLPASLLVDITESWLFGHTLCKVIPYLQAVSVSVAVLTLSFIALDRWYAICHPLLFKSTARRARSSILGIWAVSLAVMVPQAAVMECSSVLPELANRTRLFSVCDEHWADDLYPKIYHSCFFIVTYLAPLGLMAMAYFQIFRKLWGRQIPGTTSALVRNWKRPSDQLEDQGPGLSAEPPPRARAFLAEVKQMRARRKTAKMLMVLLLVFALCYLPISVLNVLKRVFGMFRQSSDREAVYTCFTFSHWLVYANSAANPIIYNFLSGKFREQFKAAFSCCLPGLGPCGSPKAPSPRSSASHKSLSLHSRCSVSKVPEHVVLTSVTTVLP
The test is described as follows: Radio-ligand displacement binding, CHO-K1 membranes, dog OX1R. The following applies: read-out: OX1R affinity (Ki). The protocol: (§1) MK-1064 was evaluated for its ability to inhibit orexin-peptide-A-induced calcium mobilization in CHO cell lines separately expressing OX1R and OX2R from mice, rats, rabbits, dogs, rhesus monkeys and humans.
(§2) Binding and functional blockade of OX1R and OX2R with MK-1064 relative to other 2-SORAs and the DORA, MK-6096, were assessed using membranes from Chinese hamster ovary (CHO)-K1 cells (American Type Tissue Collection, Manassas, VA) transfected to express human, mouse, rat, rabbit, dog, or rhesus monkey OX1R or OX2R receptors, as described previously. The kinetics of binding to human OX2R was assessed by radioligand displacement on CHO-K1 cells expressing the receptor. […] The ON rate analysis was performed by presoaking GF/B filters in 0.3% polyethyleneimine (Sigma) using a Skatron 12-well cell harvester and cold buffer at the indicated time points after addition. For OFF rate determination, binding reactions were allowed to proceed to equilibrium and terminated with 1000x [Kd] of unlabeled antagonist and filtered as above at pre-determined time points. Ultima Gold^TM (PerkinElmer 6013327) scintillation cocktail was added to each filter disc and counted on a PerkinElmer TriCarb 2910 scintillation counter. Data were analyzed using GraphPad® Prism v 6.04 (San Diego, CA, USA). The KON rate was determined according to the equation, KON = (KOBS − KOFF)/[ligand].

Test [2] deals with T2, OX2R (Homo sapiens, UniProt O43614).
T2 sequence (O43614 1-444): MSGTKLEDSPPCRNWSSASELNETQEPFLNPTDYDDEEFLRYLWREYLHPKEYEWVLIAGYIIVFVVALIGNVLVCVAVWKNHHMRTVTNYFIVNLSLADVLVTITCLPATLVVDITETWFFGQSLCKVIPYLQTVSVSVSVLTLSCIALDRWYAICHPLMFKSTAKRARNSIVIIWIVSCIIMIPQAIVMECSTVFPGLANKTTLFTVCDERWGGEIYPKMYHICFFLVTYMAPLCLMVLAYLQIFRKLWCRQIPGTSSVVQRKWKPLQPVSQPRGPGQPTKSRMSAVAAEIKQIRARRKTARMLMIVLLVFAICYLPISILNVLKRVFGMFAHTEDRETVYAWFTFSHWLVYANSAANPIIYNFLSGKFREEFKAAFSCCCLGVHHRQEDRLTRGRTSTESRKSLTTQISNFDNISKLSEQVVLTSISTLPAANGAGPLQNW
The test is described as follows: hOX2R binding kinetics (3H-labelled ligand, ON and OFF rate). The following applies: for Kd / hOX2R binding kinetics T1/2OFF / hOX2R binding kinetics T1/2ON / hOX2R binding kinetics KOFF: room temperature, pH 7.4; for hOX2R binding kinetics KON: KON = (KOBS − KOFF)/[ligand]. Set-up: expressed in transfected cells; host or cells: CHO-K1. The protocol:
as §2

Test [3] concerns the target T3, OX2R (Mus musculus, UniProt P58308).
T3 construct: expressed in transfected cells; host or cells: CHO-K1
T3 sequence (P58308 1-460): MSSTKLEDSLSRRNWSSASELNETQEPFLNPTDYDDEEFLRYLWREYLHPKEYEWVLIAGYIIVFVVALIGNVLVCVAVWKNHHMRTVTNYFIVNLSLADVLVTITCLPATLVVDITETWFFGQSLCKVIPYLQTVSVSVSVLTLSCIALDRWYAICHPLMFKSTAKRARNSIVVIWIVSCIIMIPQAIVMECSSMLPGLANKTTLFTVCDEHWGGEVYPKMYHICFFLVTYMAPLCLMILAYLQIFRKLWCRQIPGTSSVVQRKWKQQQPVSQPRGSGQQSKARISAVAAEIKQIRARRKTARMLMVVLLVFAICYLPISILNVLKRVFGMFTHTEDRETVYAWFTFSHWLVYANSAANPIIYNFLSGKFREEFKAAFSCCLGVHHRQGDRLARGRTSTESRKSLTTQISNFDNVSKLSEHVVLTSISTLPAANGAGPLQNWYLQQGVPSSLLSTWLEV
Description: Radio-ligand displacement binding, CHO-K1 membranes, mouse OX2R. The following applies: for Ki: read-out: OX2R affinity (Ki); for fold OX2R selectivity (Ki): OX1R Ki / OX2R Ki. The protocol: as §1, §2

The target of test [4] is T4, OX1R (Oryctolagus cuniculus, UniProt G1SPJ3).
T4 sequence (G1SPJ3 1-416): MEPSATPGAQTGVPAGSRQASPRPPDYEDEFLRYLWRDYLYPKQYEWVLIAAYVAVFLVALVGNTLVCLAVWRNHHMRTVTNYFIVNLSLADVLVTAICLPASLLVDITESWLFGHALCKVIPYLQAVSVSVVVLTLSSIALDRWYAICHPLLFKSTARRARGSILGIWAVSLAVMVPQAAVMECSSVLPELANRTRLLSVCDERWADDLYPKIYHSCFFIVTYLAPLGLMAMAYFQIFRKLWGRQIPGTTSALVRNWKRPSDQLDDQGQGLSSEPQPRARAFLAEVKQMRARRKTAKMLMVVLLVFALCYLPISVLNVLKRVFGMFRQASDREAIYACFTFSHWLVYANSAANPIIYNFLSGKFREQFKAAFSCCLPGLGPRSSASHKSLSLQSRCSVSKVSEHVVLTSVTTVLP
Description: Radio-ligand displacement binding, CHO-K1 membranes, rabbit OX1R. The note with it: read-out: OX1R affinity (Ki). On the procedure:
as §1, §2

A further test has as its target T5, hOX1R (Homo sapiens, UniProt O43613).
T5 construct: expressed in transfected cells; host or cells: CHO-K1
T5 sequence (O43613 1-425): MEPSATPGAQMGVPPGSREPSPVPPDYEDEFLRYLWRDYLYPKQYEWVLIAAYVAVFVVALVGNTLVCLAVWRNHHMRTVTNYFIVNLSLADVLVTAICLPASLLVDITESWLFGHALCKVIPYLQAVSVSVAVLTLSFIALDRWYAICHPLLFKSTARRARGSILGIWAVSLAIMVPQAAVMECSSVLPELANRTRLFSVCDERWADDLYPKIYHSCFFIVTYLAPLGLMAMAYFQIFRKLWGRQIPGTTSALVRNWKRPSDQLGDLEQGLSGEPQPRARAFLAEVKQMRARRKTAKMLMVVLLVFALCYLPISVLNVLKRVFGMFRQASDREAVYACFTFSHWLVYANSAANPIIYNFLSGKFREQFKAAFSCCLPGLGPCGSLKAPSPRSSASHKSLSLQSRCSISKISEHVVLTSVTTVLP
Description: Radio-ligand displacement binding, CHO-K1 membranes, human OX1R. The note with it: read-out: OX1R affinity (Ki). The protocol:
as §1, §2

Usually Ki stands for a dissociation constant, usually derived from enzyme kinetics or from competition with a known ligand. A word on the Kd: it is the equilibrium constant for the complex coming apart. Low values mean tighter binding, high ones weaker binding. Consider `COc1ccc(CNC(=O)c2cc(-c3cncc(C)c3)ncc2-c2nccs2)nc1OC` [MK-3697], for which, at OX1R [1], the Ki was found to be 3100 nM. At OX2R [2], the affinity, expressed as Kd, was 1.16 nM; the “hOX2R binding kinetics T1/2OFF” value amounted to 54.4 min; the “hOX2R binding kinetics T1/2ON” value came to 24.3 min. Further, on OX2R [3], the Ki was found to be 1.47 nM. Further, at OX1R [4], the Ki worked out at 4740 nM.

As for `COc1ccc(CNC(=O)c2cc(-c3cc(Cl)cc(Cl)c3)cnc2-c2cccnc2)cc1OC` [2-SORA-18], the Ki at OX1R [1] amounted to 86 nM; on hOX1R it was 100 nM; on OX2R [3] it was 0.15 nM; at OX1R [4], 241 nM. Besides, the “fold OX2R selectivity (Ki)” value on OX2R [3] was “[653] fold”.

With `COc1ccc(CNC(=O)c2cc(-c3cncc(Cl)c3)cnc2-c2ccccn2)nc1OC` [MK-1064, 5″-chloro-N-[(5,6-dimethoxypyridin-2-yl)methyl]-2,2′:5′, 3″-terpyridine-3′-carbo xamide], the Ki at OX1R [1] was 1300 nM. At hOX1R, the Ki is 1500 nM. In addition, at OX2R [2], the “hOX2R binding kinetics KON” value is 1.19e+07 min⁻¹, binding was characterised by a dissociation constant (Kd) of 0.51 nM, the “hOX2R binding kinetics KOFF” value was found to be 0.00697 mol⁻¹ min⁻¹ and the “hOX2R binding kinetics T1/2OFF” value worked out at 110 min. Besides, the “hOX2R binding kinetics T1/2ON” value at OX2R [2] is recorded as 21.1 min. At OX2R [3], the “fold OX2R selectivity (Ki)” value is “[1136] fold” and the Ki amounted to 1.02 nM. The Ki at OX1R [4] turned out to be 2440 nM.

Regarding `COc1ccc(CNC(=O)c2cc(-c3cncc(C)c3)ncc2-c2ccccc2)nc1OC` [2-SORA-7], the Ki at OX1R [1] worked out at 1800 nM; at hOX1R, 2800 nM; at OX2R [3] it was 0.83 nM; at OX1R [4], 4390 nM. The “fold OX2R selectivity (Ki)” value on OX2R [3] is “[2040] fold”.

Consider `Cc1ccc(-c2ncccn2)c(C(=O)N2C[C@H](COc3ccc(F)cn3)CC[C@H]2C)c1` [MK-6096], for which the inhibition constant Ki at OX1R [1] is 2.7 nM. Also, the Ki on hOX1R stood at 2.5 nM. Besides, on OX2R [2], the “hOX2R binding kinetics KON” value turned out to be 9.19e+06 min⁻¹, binding was characterised by a dissociation constant (Kd) of 0.34 nM, the “hOX2R binding kinetics KOFF” value turned out to be 0.0188 mol⁻¹ min⁻¹ and the “hOX2R binding kinetics T1/2OFF” value came to 118.3 min. Further, the “hOX2R binding kinetics T1/2ON” value at OX2R [2] was determined as 62.9 min. For the same molecule, at OX2R [3], the “fold OX2R selectivity (Ki)” value is “[5.2] fold” and the Ki is 0.56 nM. The Ki at OX1R [4] is 2.6 nM.
